Patent US20100267561A1, “HERBICIDAL PYRIDAZINONE DERIVATIVES” (priority 2007, published 2010)
Like-named read-outs stand apart in the source and are kept apart here.

How the values were obtained:
Assay in all cases: Test B pre-/postemergence plant response
Format in all cases: in vivo
[1] = system: morningglory (Ipomoea coccinea); conditions: Ipomoea, read-out: Plant response rating, Morningglory; for pest or weed control at 16 g/ha: 16 g ai/ha; for pest or weed control at 31 g/ha: 31 g ai/ha, 100 complete control; for pest or weed control at 62 g/ha: 62 g ai/ha; for pest or weed control at 125 g/ha: 125 g ai/ha
Method in brief: (§1)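 Visual scoring from 0 (no effect) to 100 (complete control) against untreated controls was done 13 to 15 days after greenhouse treatment. Chemicals were formulated in a surfactant-containing non-phytotoxic solvent and applied to soil preemergence or to 1- to 4-leaf (2-18 cm) plants postemergence.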

kochia (Kochia scoparia) = conditions: Postemergence
Method in brief: as §1

[2] = system: lambsquarters (Chenopodium album); conditions: Chenopodium album, read-out: Plant response rating, Lambsquarters; for pest or weed control at 16 g/ha: 16 g ai/ha; for pest or weed control at 31 g/ha: 31 g ai/ha, 100 complete control; for pest or weed control at 125 g/ha: 125 g ai/ha
Method in brief: as §1

[3] = system: common (oilseed) sunflower (Helianthus annuus); conditions: Helianthus annuus, pre-emergence, Preemergence, read-out: Plant response rating, Sunflower
Method in brief: as §1

[4] = system: velvetleaf (Abutilon theophrasti); conditions: Abutilon theophrasti, read-out: Plant response rating, Velvetleaf; for pest or weed control at 16 g/ha: 16 g ai/ha; for pest or weed control at 31 g/ha: 31 g ai/ha, 100 complete control; for pest or weed control at 62 g/ha: 62 g ai/ha; for pest or weed control at 125 g/ha: 125 g ai/ha
Method in brief: as §1

[5] = system: surinam grass (Brachiaria decumbens); conditions: Urochloa decumbens, read-out: Plant response rating, Surinam Grass; for pest or weed control at 16 g/ha: 16 g ai/ha; for pest or weed control at 31 g/ha: 31 g ai/ha, 100 complete control; for pest or weed control at 62 g/ha: 62 g ai/ha; for pest or weed control at 125 g/ha: 125 g ai/ha
Method in brief: as §1

[6] = system: wheat (Triticum aestivum); conditions: Triticum aestivum, read-out: Plant response rating, Wheat; for plant injury at 16 g/ha: 16 g ai/ha; for plant injury at 31 g/ha: 31 g ai/ha, 100 complete control; for plant injury at 62 g/ha: 62 g ai/ha; for plant injury at 125 g/ha: 125 g ai/ha
Method in brief: as §1

[7] = system: common ragweed (Ambrosia elation); conditions: Ambrosia, read-out: Plant response rating, Ragweed; for pest or weed control at 16 g/ha: 16 g ai/ha; for pest or weed control at 31 g/ha: 31 g ai/ha, 100 complete control; for pest or weed control at 62 g/ha: 62 g ai/ha; for pest or weed control at 125 g/ha: 125 g ai/ha
Method in brief: as §1

soybean (Glycine max) = conditions: Glycine max, read-out: Plant response rating, Soybean; for plant injury at 16 g/ha: 16 g ai/ha; for plant injury at 31 g/ha: 31 g ai/ha, 100 complete control; for plant injury at 62 g/ha: 62 g ai/ha; for plant injury at 125 g/ha: 125 g ai/ha
Method in brief: as §1

[8] = system: Italian ryegrass (Lolium multiflorum); conditions: Lolium multiflorum, read-out: Plant response rating, Ryegrass, Italian; for pest or weed control at 16 g/ha: 16 g ai/ha; for pest or weed control at 31 g/ha: 31 g ai/ha, 100 complete control; for pest or weed control at 62 g/ha: 62 g ai/ha; for pest or weed control at 125 g/ha: 125 g ai/ha
Method in brief: as §1

[9] = system: goosegrass (Eleusine indica); conditions: Eleusine indica, read-out: Plant response rating, Goosegrass; for pest or weed control at 16 g/ha: 16 g ai/ha; for pest or weed control at 31 g/ha: 31 g ai/ha, 100 complete control; for pest or weed control at 62 g/ha: 62 g ai/ha; for pest or weed control at 125 g/ha: 125 g ai/ha
Method in brief: as §1

[10] = system: johnsongrass (Sorghum halepense); conditions: Sorghum halepense, read-out: Plant response rating, Johnsongrass; for pest or weed control at 16 g/ha: 16 g ai/ha; for pest or weed control at 31 g/ha: 31 g ai/ha, 100 complete control; for pest or weed control at 62 g/ha: 62 g ai/ha; for pest or weed control at 125 g/ha: 125 g ai/ha
Method in brief: as §1

[11] = system: cocklebur (Xanthium strumarium); conditions: Xanthium strumarium, read-out: Plant response rating, Cocklebur; for pest or weed control at 62 g/ha: 62 g ai/ha; for pest or weed control at 125 g/ha: 125 g ai/ha
Method in brief: as §1

[12] = system: bermudagrass (Cynodon dactylon); conditions: Cynodon dactylon, read-out: Plant response rating, Bermudagrass; for pest or weed control at 16 g/ha: 16 g ai/ha; for pest or weed control at 31 g/ha: 31 g ai/ha, 100 complete control; for pest or weed control at 62 g/ha: 62 g ai/ha; for pest or weed control at 125 g/ha: 125 g ai/ha
Method in brief: as §1

[13] = post-emergence, Postemergence, scale 0 to 100
[14] = post-emergence, Postemergence, scale 0 to 100, 0 no effect
[15] = pre-emergence, Preemergence, scale 0 to 100 (0 no effect, 100 complete control)
[16] = pre-emergence, Preemergence, 0 to 100 scale, 0 no effect
[17] = pre-emergence, Preemergence, scale 0 to 100

CCc1cc(-c2ccc(C(F)(F)F)cc2)nn1-c1c(O)cnn(C)c1=O [Compound 11, 4-[5-ethyl-3-[4-(trifluoromethyl)phenyl]-1H-pyrazol-1-yl]-5-hydroxy-2-methyl-3(2H)-pyridazinone]
pest or weed control at 16 g/ha [1, 13]: 0%
pest or weed control at 31 g/ha [1, 14]: 0%
pest or weed control at 62 g/ha [1, 13]: 0%
pest or weed control at 125 g/ha [1, 13]: 0%
pest or weed control at 16 g/ha [1, 15]: 0%
pest or weed control at 31 g/ha [1, 16]: 0%
pest or weed control at 62 g/ha [1, 17]: 0%
pest or weed control at 125 g/ha [1, 17]: 0%
Plant response rating, Kochia (kochia (Kochia scoparia); 16 g ai/ha, scale 0 to 100): 0
Plant response rating, Kochia (kochia (Kochia scoparia); 31 g ai/ha, scale 0 to 100, 0 no effect, 100 complete control): 0
Plant response rating, Kochia (kochia (Kochia scoparia); 62 g ai/ha, scale 0 to 100): 0
Plant response rating, Kochia (kochia (Kochia scoparia); 125 g ai/ha, scale 0 to 100): 0
pest or weed control at 16 g/ha [2, 13]: 0%
pest or weed control at 31 g/ha [2, 14]: 0%
pest or weed control at 62 g/ha ([2]; post-emergence, Postemergence, 62 g ai/ha, scale 0 to 100): 0%
pest or weed control at 125 g/ha [2, 13]: 0%
pest or weed control at 16 g/ha [2, 15]: 0%
pest or weed control at 31 g/ha [2, 16]: 0%
pest or weed control at 125 g/ha [2, 17]: 0%
pest or weed control at 16 g/ha ([3]; 16 g ai/ha, scale 0 to 100 (0 no effect, 100 complete control)): 0%
pest or weed control at 31 g/ha ([3]; 31 g ai/ha, 0 to 100 scale, 0 no effect, 100 complete control): 0%
pest or weed control at 62 g/ha ([3]; 62 g ai/ha, scale 0 to 100): 0%
pest or weed control at 125 g/ha ([3]; 125 g ai/ha, scale 0 to 100): 0%
pest or weed control at 16 g/ha [4, 13]: 0%
pest or weed control at 31 g/ha [4, 14]: 0%
pest or weed control at 62 g/ha [4, 13]: 0%
pest or weed control at 125 g/ha [4, 13]: 0%
pest or weed control at 16 g/ha [4, 15]: 0%
pest or weed control at 31 g/ha [4, 16]: 0%
pest or weed control at 62 g/ha [4, 17]: 0%
pest or weed control at 125 g/ha [4, 17]: 0%
pest or weed control at 16 g/ha [5, 13]: 100%
pest or weed control at 31 g/ha [5, 14]: 100%
pest or weed control at 62 g/ha [5, 13]: 100%
pest or weed control at 125 g/ha [5, 13]: 100%
pest or weed control at 16 g/ha [5, 15]: 100%
pest or weed control at 31 g/ha [5, 16]: 100%
pest or weed control at 62 g/ha [5, 17]: 100%
pest or weed control at 125 g/ha [5, 17]: 100%
plant injury at 16 g/ha [6, 13]: 90%
plant injury at 31 g/ha [6, 14]: 100%
plant injury at 62 g/ha [6, 13]: 100%
plant injury at 125 g/ha [6, 13]: 100%
plant injury at 16 g/ha [6, 15]: 90%
plant injury at 31 g/ha [6, 16]: 95%
plant injury at 62 g/ha [6, 17]: 95%
plant injury at 125 g/ha [6, 17]: 100%
pest or weed control at 16 g/ha [7, 13]: 0%
pest or weed control at 31 g/ha [7, 14]: 0%
pest or weed control at 62 g/ha [7, 13]: 0%
pest or weed control at 125 g/ha [7, 13]: 0%
pest or weed control at 16 g/ha [7, 15]: 0%
pest or weed control at 31 g/ha [7, 16]: 0%
pest or weed control at 62 g/ha [7, 17]: 0%
pest or weed control at 125 g/ha [7, 17]: 0%
plant injury at 16 g/ha (soybean (Glycine max); [13]): 0%
plant injury at 31 g/ha (soybean (Glycine max); [14]): 0%
plant injury at 62 g/ha (soybean (Glycine max); [13]): 0%
plant injury at 125 g/ha (soybean (Glycine max); [13]): 0%
plant injury at 16 g/ha (soybean (Glycine max); [15]): 0%
plant injury at 31 g/ha (soybean (Glycine max); [16]): 0%
plant injury at 62 g/ha (soybean (Glycine max); [17]): 0%
plant injury at 125 g/ha (soybean (Glycine max); [17]): 0%
pest or weed control at 16 g/ha [8, 13]: 100%
pest or weed control at 31 g/ha [8, 14]: 100%
pest or weed control at 62 g/ha [8, 13]: 100%
pest or weed control at 125 g/ha [8, 13]: 100%
pest or weed control at 16 g/ha [8, 15]: 90%
pest or weed control at 31 g/ha [8, 16]: 100%
pest or weed control at 62 g/ha [8, 17]: 100%
pest or weed control at 125 g/ha [8, 17]: 100%
pest or weed control at 16 g/ha [9, 13]: 100%
pest or weed control at 31 g/ha [9, 14]: 100%
pest or weed control at 62 g/ha [9, 13]: 100%
pest or weed control at 125 g/ha [9, 13]: 100%
pest or weed control at 16 g/ha [9, 15]: 85%
pest or weed control at 31 g/ha [9, 16]: 90%
pest or weed control at 62 g/ha [9, 17]: 100%
pest or weed control at 125 g/ha [9, 17]: 100%
pest or weed control at 16 g/ha [10, 13]: 100%
pest or weed control at 31 g/ha [10, 14]: 100%
pest or weed control at 62 g/ha [10, 13]: 100%
pest or weed control at 125 g/ha [10, 13]: 100%
pest or weed control at 16 g/ha [10, 15]: 90%
pest or weed control at 31 g/ha [10, 16]: 98%
pest or weed control at 62 g/ha [10, 17]: 100%
pest or weed control at 125 g/ha [10, 17]: 100%
pest or weed control at 16 g/ha ([11]; post-emergence, Postemergence, 16 g ai/ha, scale 0 to 100): 0%
pest or weed control at 31 g/ha ([11]; post-emergence, Postemergence, 31 g ai/ha, scale 0 to 100, 0 no effect, 100 complete control): 0%
pest or weed control at 62 g/ha [11, 13]: 0%
pest or weed control at 125 g/ha [11, 13]: 0%
pest or weed control at 62 g/ha [11, 17]: 0%
pest or weed control at 125 g/ha [11, 17]: 0%
pest or weed control at 16 g/ha [12, 13]: 100%
pest or weed control at 31 g/ha [12, 14]: 100%
pest or weed control at 62 g/ha [12, 13]: 100%
pest or weed control at 125 g/ha [12, 13]: 100%
pest or weed control at 16 g/ha [12, 15]: 100%
pest or weed control at 31 g/ha [12, 16]: 100%
pest or weed control at 62 g/ha [12, 17]: 100%
pest or weed control at 125 g/ha [12, 17]: 100%
